Laboratory results taken from a melting point compilation (Tetko et al.; mined from patent text by program, amines drawn as free bases though some values may be those of a salt).

| melting point [°C] | Structure (SMILES) |
| --- | --- |
| 220 to 223 | Cc1cccc(Cl)c1C(=O)N[C@@H](Cc1ccc(-c2c(C(F)(F)F)cc(C)n(C)c2=O)cc1)C(=O)O |
| 153 to 157 | CSC1CCN(C(=O)CCSC(C)=O)C1C(=O)O (centres undefined) |
| 170 to 172 | CCOC(=O)c1cccc(-c2nc(=O)c3ccccc3s2)n1 |
| 83 to 86 | COc1cc(N)c2cc[nH]c2c1 |
| 103 to 104 | O=C(CCC1CCN(Cc2ccccc2)CC1)c1cc2c3c(c1)CCN3C(=O)CC2 |
| 178 to 180 | CC(CSC#N)n1nnc2cc3c(=O)n(C4CC4)nnc3cc2c1=O (centres undefined) |
| 127 to 129 | CC1Cc2c(N)c(Cl)cc(C(=O)NCCC34CCCN3CCC4)c2O1 (centres undefined) |
| > 400 | O=C1N=c2cc(Cl)c(Cl)cc2=NC1=O |
| 198 to 203 | C=CCn1c(NCC#N)nc(N2CCc3ccccc3CC2)c(C#N)c1=O |
| 109 to 111 | CC(=O)NC(C)c1ccc(CN2CCN(c3ccc(F)cc3F)CC2)cc1 (centres undefined) |
| 152 | COP(=O)(Cc1ccc(-c2nc3ccccc3s2)nc1)OC |
| 135 to 136 | Cc1ccc(C)c(C(CCC(=O)O)Oc2cc(OCc3ccsc3)ccc2C#N)c1 (racemic) |
| 176 to 177 | O=C(NO)C1(NS(=O)(=O)c2ccc(Oc3ccc(F)cc3)cc2)CCOCC1 |
| 117 to 118 | CCCCCCCCCCCCNC1=NC(N2CCOCC2)=NCN1 |
| 63 to 64 | CCN(SCc1nccs1)C(=C[N+](=O)[O-])SC |
| 68 to 70 | CCCCCCCCCCCCc1ccc2c(Cl)cccc2c1O |
| 215 to 218 | CC(Cl)C(=O)N1c2ccccc2C(=O)Nc2cccnc21 (centres undefined) |
| 162 to 163 | CCCCCCCCCCCCCCCCn1c(-c2ccc(Cl)c(N)c2)nc2ccccc21 |
| 168 to 173 | CCN(CC)c1ccc(-c2nc3ccc(OC(F)(F)F)cc3[nH]2)cc1 |
| 248 to 250 | CC(C)Sc1cc2c(cc1Cl)N=C(CCl)NS2(=O)=O |
| 230 to 232 | N#Cc1ccc(NC(=O)c2cccc(S(=O)(=O)N3CCOCC3)c2)c(-c2nnn[nH]2)c1 |
| 110 to 112 | O=C(O)/C=C/C=C(c1cccc(C(F)(F)F)c1)c1cccc(C(F)(F)F)c1 |
| 127 to 129 | Clc1c(CBr)ccc2cc(CBr)ccc12 |
| 99.5 to 100 | CS(=O)(=O)Nc1cc(C(O)CNCCCCCCOCCCCOc2ccc3ccccc3c2)ccc1O (centres undefined) |

| melting point [°C] | Structure (SMILES) |
| --- | --- |
| 113 to 114 | COC(=O)C1=C(C)NC(C)=C(C(=O)OC)C1c1ccccc1CC(OC)OC |
| 155 to 156 | Cn1c(Nc2cc(C(F)(F)F)ccc2C(F)(F)F)nc(C(F)(F)F)cc1=O |
| 208 to 209 | COc1ccc(C)cc1NC(=O)Nc1ccc(N2CCN(C(=O)C3CCCCC3C)CC2)cc1 (centres undefined) |
| 140 to 145 | CN(Cc1cn[nH]c1)C1CCN(C(=O)c2ccc(Nc3nccc(Nc4ccc(F)cc4)n3)cc2)CC1 |
| 172 to 173 | CNC(=S)C1(c2cccnc2)CCCCC1=CCO (centres undefined) |
| 92 to 94 | Cc1cc(SC2=C(O)CC(CCc3cccc(O)c3)(CCc3cccc(O)c3)OC2=O)c(C(C)(C)C)cc1CO |
| 220 to 223 | O=C(Nc1ccc(O)cc1)Nn1cnc2ccccc2c1=O |
| 121 to 122 | COc1ccc(CSc2nnc(-c3ccc4c(c3)CCO4)o2)cc1F |
| 113 to 115 | N#CC1=CCCc2ccc(Br)cc21 |
| 53 to 54 | CCOC1(OCCc2nc(C(C)C)c(Sc3cc(Cl)cc(Cl)c3)n2C)CCCCCC1 |
| 179 to 180 | CCOC(CC)c1ccc(Cl)c2nc3n(c12)CCCN3c1cnc(N(C)C)cc1C (centres undefined) |
| 102 to 103 | CC(C)=CCCC(C)=CCOc1ccc(C(=O)Nc2cccnc2)cc1 |
| 224 to 227 | CC(=O)NN1CCC(c2ccc(-c3cccc(N)n3)cc2)CC1 |
| 86 | CCOC(=O)C(=CNNc1c(Cl)cc(C(F)(F)F)cc1Cl)C(=O)OCC |
| 230 to 235 | O=C(C=Cc1ccc(Cl)cc1)NN1CC(=O)NC1=O |
| 74 to 75 | Cc1cccc2c1SC1(CC1)C2=O |
| 143 to 144 | COc1ccc(C2(C(=O)Oc3ccc(C(=O)NO)cc3)CCCC2)cc1 |
| 166 to 167 | C=CCOc1ccc2c(c1C=NO)OCO2 |
| 120 | C#CCn1cc(C=O)c([N+](=O)[O-])c1 |
| 108 to 110 | CCOC(=O)c1[nH]c(C)c(C(C)(C)C)c1C |
| 130 | CC(O)CC1NCc2ccsc2-n2cccc21 (centres undefined) |
| 223 to 225 | O=C(OCC1OC(n2ccc(=O)[nH]c2=O)CC1OC(=O)c1ccccc1)c1ccccc1 (centres undefined) |
| 139 to 140 | CN1CCC(n2nc(-c3c(-c4ccccc4)nn4ccccc34)ccc2=O)CC1 |
| 103 to 104 | O=C(c1ccc(Cl)cc1)c1ccc(CBr)cc1 |

| melting point [°C] | Structure (SMILES) |
| --- | --- |
| 169 to 171 | N#CC(C(=O)Nc1ccc(F)cc1F)C(=O)c1ccc[nH]1 (centres undefined) |
| 130 to 132 | COc1ccc(-c2nc(C(=O)NCCc3ccccn3)sc2-c2ccc(OC)cc2)cc1 |
| 238 to 240 | CC(C)n1cc(-c2ccc(NS(=O)(=O)c3ccccc3)cc2)c2c(N)ncnc21 |
| 274 to 275 | CCn1cc(C(=O)NN)c(=O)c2ccc(-c3ccncc3)cc21 |
| 122 to 124 | COC(=O)c1c[nH]c(Sc2ccc(Cl)cc2)c1 |
| 193 | CC(C(N)=O)c1ccc2nc(-c3ccccc3)oc2c1 (centres undefined) |
| 107 to 109 | Cc1cccc(C(=O)N(NC(C)C)C(C)(C)C)c1 |
| 197 to 198 | CC(C)(C)OC(=O)Nc1ccc(C(=O)O)cc1C(F)(F)F |
| 110 to 111 | CCCCc1nn(-c2ccc(C(F)(F)F)cn2)cc1CO |
| 69 to 70 | N#CCc1ccccc1Sc1ccc(Cl)c(C(F)(F)F)c1 |
| > 300 | O=C(O)c1ccc(C(=O)O)c2c(C(O)=Nc3ccccc3)ccc(C(=O)O)c12 |
| 113 to 117 | O=C(Cn1cccc(NC(=O)OCc2ccccc2)c1=O)NC(Cc1ccccc1)C(=O)C(F)(F)F (centres undefined) |
| 159 to 162 | ON=C1CCC(c2ccc(Cl)c(Cl)c2)c2ccccc21 (centres undefined) |
| 78 to 79 | CCCCNc1cccc2c1C(=O)c1ccccc1C2=O |
| 118 to 119 | O=[N+]([O-])c1cccc(Oc2cncc(Cl)n2)c1 |
| 27 to 30 | CCCCCCCCCCCCOC(=O)CC(O)C(=O)OCCCCCCCCCCCC (centres undefined) |
| 172 to 174 | CC(C)(C)OC(=O)CCc1nc(C(=O)OC(C)(C)C)ccc1O |
| 112 to 114 | Cc1ccc(S(=O)(=O)N(c2ccc(Cl)cc2[N+](=O)[O-])C(C)C)cc1 |
| 189 to 191 | CNC(=S)NS(=O)(=O)c1cc(CCNC(=O)c2cc(Cl)ccc2OC)ccc1-c1cccs1 |
| 83 to 85 | CCCc1c(OCCCOc2ccc(C(C)=O)c(OCc3ccccc3)c2CCC)ccc2c1OC(CO)CC2 (centres undefined) |
| 246 to 248 | COc1ccc(Nc2nc(O)c3sccc3n2)c(C)c1 |
| 132 | Nc1cc(=O)n(Cc2ccc(Cl)c(C(F)(F)F)c2)[nH]1 |
| 300 to 303 | Nc1nc(N)c2c(ccc3[nH]c4c(c32)CCCC4)n1 |

| Structure (SMILES) | melting point [°C] |
| --- | --- |
| c1ccc(Oc2ccc(N3CCNCC3)nc2)cc1 | 80.5 to 83 |
| CC(=O)NC(NNc1ccccc1)C(=O)NCc1ccccc1 (centres undefined) | 132 to 134 |
| c1ccc(-c2cnc(NC3=NCC4(CN5CCC4CC5)O3)s2)cc1 (centres undefined) | 187 to 189 |
